Experimental data: patent US7605280B2, “Anthraquinone and its derivatives” (Biostatus Limited, priority 1998, dated 2009)
“And” between values parts separate entries of the source, which are not always exact repeats. Equal values may be shown once.

Experiments:
[1] = tested on: SUD4 cells; assay: FACScan (Cytometer C) flow cytometric analysis of DRAQ5-labelled cells; type: cell-based, human
Experimental: (§1) HL60 (human promyelocytic-leukaemia cell line) and SUD4 (human B cell lymphoma cell line) were grown as suspension cultures-in-RMPI medium with 10% foetal calf serum, 1 mM glutamine and antibiotics and incubated at 37° C. in an atmosphere of 5% CO2 in air. For flow cytometry experiments, asynchronously growing suspension cultures were diluted to 2.5-4>10^5 cells/ml at 2 h prior to drug treatment. Cell cycle-perturbed populations were obtained by treating SUD4 cells with the drug etoposide (VP-16-213) at 0.25 μM for 18h. Cells were treated with DRAQ5 and FDA as described above. Cell concentrations were determined using a Coulter counter and cell cycle distribution determined using an algorithm for the normal distibution of fluorescence intensity profiles for fluorochrome stained G1 and G2 cells.
Suspension cultures were analysed by flow cytometry without washing. Human blood was obtained using routine venepuncture of a healthy donor and samples manipulated using standard haematological procedures for the isolation of mononuclear blood cells and surface antigen recognition using antibody panels (see Table 1).
Cells were analysed using one of four flow cytometers according to the excitation requirements. • Cytometer A: Single beam high power 647 nm krypton laser excitation: The system was a custom-built cytometer and incorporated an Innova 3000K krypton laser (Coherent Corp., Palo Alto, Calif., USA) tuned to the 647 nm line. Forward light scatter, 90° light scatter and fluorescence emissions were collected for 1×10^4 cells using the 90° light scatter parameter as the master signal. The optical system permitted the analysis of various fluorescence emission wavelengths including: >715 nm (termed low infra-red) and, as reported here >780 nm fluorescence (infra-red ). Forward and 90° light scatter were analysed for the identification of cell debris. Laser power was set at 200 mW and linear amplifiers were used for the fluorescence signals. The analysis optics included a 675 nm cold dichroic mirror, ambient laboratory temperature was approximately 12° C. and the sheath reservoir was maintained at 10° C. Filters were supplied by Melles Griot. Median, mean and mode parameters were calculated for the distribution of fluorescence intensity-values throughout a given cell population. In all experiments, median and mean values produced very similar results. Median values alone are reported since this parameter is less affected by the presence of highly fluorescent cells beyond the upper limit for quantification. • Cytometer B: Dual beam low power 633 nm/high power 488 nm laser excitation: The system was a FACS 440 cell sorter (Becton Dickinson Inc., Cowley, UK) incorporating a Spectra Physics argon ion laser (max 500 mW output), tuned to the 488 nm line (100 mW output), and a secondary Spectra Physics 156 helium-neon laser emitting at 633 nm (emitting <5 mW), with a temporal beam separation of about 30 μsec. Forward light scatter, 90° light scatter and fluorescence emissions were collected for 1×10^4 cells using the forward light scatter parameter as the master signal from the primary 488 nm beam, while side scatter was collected through a 488/10 nm band-pass filter. The analysis optics included: i) a cold dichroic mirror (transmitting >675 nm), ii) fluorescence from fluorescein excited by the 488 nm beam detected at a PMT guarded by a 535/15 nm band-pass filter with no signal delay, and iii) a red-sensitive PMT with an appropriate delay, additionally guarded by a 620 nm long-pass filter, to detect the transmitted beam of DRAQ5-associated fluorescence at wavelengths beyond 675 nm (high-red and extending into the infra red region of the spectrum) Forward and 90° light scatter were analysed to exclude any cell debris. All parameters were acquired at 256 channel resolution with Consort 30 software (Becton Dickinson) and subsequently analysed with WinMDI software (J. Trotter, La Jolla, Calif.). […]

[2] = tested on: viable HL60 cells; assay: Flow cytometric analysis of DRAQ5 accumulation (Cytometers A and B); type: cell-based, human; details: Cytometer B, low power 633 nm, 1 h exposure
Experimental: as §1
Cells were analysed using one of four flow cytometers according to the excitation requirements. • Cytometer A: Single beam high power 647 nm krypton laser excitation: The system was a custom-built cytometer and incorporated an Innova 3000K krypton laser (Coherent Corp., Palo Alto, Calif., USA) tuned to the 647 nm line. Forward light scatter, 90° light scatter and fluorescence emissions were collected for 1×10^4 cells using the 90° light scatter parameter as the master signal. […] Forward and 90° light scatter were analysed for the identification of cell debris. […]

SMILES: CN(C)CCNc1ccc(O)c2c1C(=O)c1c(O)ccc(NCCN(C)C)c1C2=O [DRAQ5]
- DRAQ5 concentration at which staining saturates ([1]; 5 min at room temperature, SUD4, lymphocytes, monocytes (FIG. 8)): ≥ 10 µM
- increase of mean fluorescence for G2 arrested populations ([1]; Preparation 1, VP-16 arrested versus asynchronous cells): 1.7 fold
- Mean fluorescence intensity (±sd) of gated population ([1]; Preparation 1, 20 μM DRAQ5, 120 min, FL3): 645.1 ± 177.7
- Mean fluorescence intensity (±sd) of gated population ([1]; Preparation 1, cells pretreated 0.25 μM VP-16 × 18 h, 20 μM DRAQ5, 5 min): 891.8 ± 126.4
- Mean fluorescence intensity (±sd) of gated population ([1]; Preparation 1 viable cultured cells, 20 μM DRAQ5, 5 min, FL3): 499.4 ± 143.3 and 532.4 ± 148.3
- Mean fluorescence intensity (±sd) of gated population ([1]; Preparation 2, cells pretreated 0.25 μM VP-16, 20 μM DRAQ5, 5 min): 902.7 ± 117.1
- Mean fluorescence intensity (±sd) of gated population ([1]; Preparation 2 surface antigen analysis, 20 μM DRAQ5, 5 min): 564.3 ± 147.2
- lower end of linear dose-response of 633 nm derived DRAQ5 signal [2]: approximately 2.5 μM
